This test addresses T1, ScNsrR ([4Fe-4S] NsrR) (Streptomyces coelicolor, UniProt Q9L132).
T1 construct: untagged native full-length protein from pNsrR, E. coli BL21λDE3, anaerobic heparin purification, homodimer (~37 kDa by gel filtration); C-terminal His6 form (apo 17,474 Da) used for native MS
The test is described as follows: CD titration at […] nm, single-site fit. The test is classed as binding.

T1 sequence (Q9L132 whole entry): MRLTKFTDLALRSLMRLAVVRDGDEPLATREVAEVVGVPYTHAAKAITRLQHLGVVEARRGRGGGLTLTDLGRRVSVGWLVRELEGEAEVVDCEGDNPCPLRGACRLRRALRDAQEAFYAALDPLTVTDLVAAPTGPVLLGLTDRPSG

As for `OC(CS)C(O)CS` (stereo not drawn) [dithiothreitol], the Kd was determined as 9.9 mM.
Turning to `CCS` [thioethane], the Kd is ~1.9 mM.
`OCCS` [β-mercaptoethanol]: the Kd was ~3.8 mM.

These data come from paper PMC4432287, “NsrR from Streptomyces coelicolor Is a Nitric Oxide-sensing [4Fe-4S] Cluster Protein with a Specialized Regulatory Function” (The Journal of Biological Chemistry, 2015).
